# Test results taken from patent US20070155764A1, “NOVEL SUBSTITUTED PYRIMIDINYLOXY UREAS USEFUL AS INHIBITORS OF PROTEIN KINASES” (KALYPSYS, INC., priority 2005, published 2007).
# Experiments:
# Type in all cases: biochemical
# PDGFRβ kinase = molecular target: T1, PDGFRβ kinase (Homo sapiens, UniProt P09619); assay: In vitro PDGFRβ kinase assay; conditions: ADP Quest assay, poly Glu:Tyr substrate, 60 μM ATP
# T1 construct: purchased Invitrogen Inc. P3082
# Method in brief: (§1)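 Compound was preincubated 10 min at ~22 °C with 20 ng VEGFR2 or 25 ng PDGFRβ, then poly Glu:Tyr (4:1) substrate (0.25 μg) with 60 μM ATP (in added buffer) was reacted 2 h at 30 °C. ADP Quest resorufin fluorescence was read (ex 530/em 580) after 30 min. Efficacy is expressed as percent of positive-control (Bay 43-9006) activity, with DMSO as negative control.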
# VEGFR2 kinase = molecular target: T2, VEGFR2 kinase (Homo sapiens, UniProt P35968); assay: In vitro VEGFR2 kinase assay; conditions: ADP Quest assay, poly Glu:Tyr substrate, 60 μM ATP
# T2 construct: purchased Invitrogen Inc PV3660
# T2 sequence (P35968 20-1356): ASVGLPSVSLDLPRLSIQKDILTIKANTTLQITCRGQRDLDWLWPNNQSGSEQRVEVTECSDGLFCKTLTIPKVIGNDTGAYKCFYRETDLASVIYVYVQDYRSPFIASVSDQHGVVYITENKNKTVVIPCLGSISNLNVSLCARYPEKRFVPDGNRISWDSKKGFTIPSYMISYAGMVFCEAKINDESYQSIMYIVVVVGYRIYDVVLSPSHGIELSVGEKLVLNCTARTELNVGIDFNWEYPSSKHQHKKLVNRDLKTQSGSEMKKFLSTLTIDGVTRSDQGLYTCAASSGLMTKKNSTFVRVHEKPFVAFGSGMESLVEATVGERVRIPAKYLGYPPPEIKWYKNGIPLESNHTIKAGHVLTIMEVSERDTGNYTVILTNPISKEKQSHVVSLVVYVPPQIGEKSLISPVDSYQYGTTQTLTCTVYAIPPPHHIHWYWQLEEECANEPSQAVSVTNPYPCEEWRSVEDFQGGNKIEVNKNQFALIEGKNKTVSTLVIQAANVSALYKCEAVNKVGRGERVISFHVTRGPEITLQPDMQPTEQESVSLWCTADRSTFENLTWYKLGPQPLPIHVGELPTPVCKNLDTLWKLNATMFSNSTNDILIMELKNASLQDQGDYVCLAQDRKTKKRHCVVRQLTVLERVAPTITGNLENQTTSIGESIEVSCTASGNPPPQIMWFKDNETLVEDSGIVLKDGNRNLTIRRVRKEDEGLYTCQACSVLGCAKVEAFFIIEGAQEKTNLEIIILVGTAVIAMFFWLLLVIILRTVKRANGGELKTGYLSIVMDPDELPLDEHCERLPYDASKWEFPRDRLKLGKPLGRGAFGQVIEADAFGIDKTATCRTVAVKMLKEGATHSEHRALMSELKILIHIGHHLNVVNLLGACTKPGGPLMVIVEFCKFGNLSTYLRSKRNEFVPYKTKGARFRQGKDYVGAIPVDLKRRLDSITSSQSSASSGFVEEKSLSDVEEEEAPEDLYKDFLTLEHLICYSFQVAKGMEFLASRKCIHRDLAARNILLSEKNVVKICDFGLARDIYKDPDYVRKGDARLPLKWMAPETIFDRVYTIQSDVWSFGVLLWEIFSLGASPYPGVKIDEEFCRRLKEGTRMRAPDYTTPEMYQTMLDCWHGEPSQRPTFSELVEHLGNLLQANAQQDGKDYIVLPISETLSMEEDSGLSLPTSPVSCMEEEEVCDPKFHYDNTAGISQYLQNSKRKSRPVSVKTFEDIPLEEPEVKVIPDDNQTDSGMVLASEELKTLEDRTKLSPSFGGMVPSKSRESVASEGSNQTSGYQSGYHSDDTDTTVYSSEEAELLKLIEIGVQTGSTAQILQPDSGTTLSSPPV
# Method in brief: as §1
# [1] = molecular target: T3, human B-Raf protein kinase (Homo sapiens, UniProt P15056); assay: In vitro B-Raf/Mek1 composite kinase assay; conditions: recombinant GST-tagged human B-Raf (Δ1-415) with inactive Mek1, 2 μM ATP
# T3 construct: GST (N); purchased Upstate Inc. 14-530 (B-Raf); 14-420 (Mek1)
# T3 sequence (P15056 416-766): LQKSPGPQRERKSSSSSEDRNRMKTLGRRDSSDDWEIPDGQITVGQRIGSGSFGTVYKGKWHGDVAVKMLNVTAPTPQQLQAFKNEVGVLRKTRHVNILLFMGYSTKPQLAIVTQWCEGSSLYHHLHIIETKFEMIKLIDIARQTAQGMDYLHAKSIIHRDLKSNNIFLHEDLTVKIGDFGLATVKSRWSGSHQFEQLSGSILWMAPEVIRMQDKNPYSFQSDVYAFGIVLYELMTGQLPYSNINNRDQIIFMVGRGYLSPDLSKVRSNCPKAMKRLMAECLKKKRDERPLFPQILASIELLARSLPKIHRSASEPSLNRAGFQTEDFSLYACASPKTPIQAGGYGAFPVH
# Method in brief: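 Luminescent ATP-depletion assay using recombinant N-terminal GST-tagged human B-Raf (Δ1-415, 1 ng/well) in MOPS pH 7.2 buffer with 10 mM MgCl2. Compounds were preincubated 15 min at about 22° C, then the reaction ran 2 h before PKLight readout. Efficacy is expressed as percentage of positive-control (Bay 43-9006) activity.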
# T1 sequence (P09619 33-1106): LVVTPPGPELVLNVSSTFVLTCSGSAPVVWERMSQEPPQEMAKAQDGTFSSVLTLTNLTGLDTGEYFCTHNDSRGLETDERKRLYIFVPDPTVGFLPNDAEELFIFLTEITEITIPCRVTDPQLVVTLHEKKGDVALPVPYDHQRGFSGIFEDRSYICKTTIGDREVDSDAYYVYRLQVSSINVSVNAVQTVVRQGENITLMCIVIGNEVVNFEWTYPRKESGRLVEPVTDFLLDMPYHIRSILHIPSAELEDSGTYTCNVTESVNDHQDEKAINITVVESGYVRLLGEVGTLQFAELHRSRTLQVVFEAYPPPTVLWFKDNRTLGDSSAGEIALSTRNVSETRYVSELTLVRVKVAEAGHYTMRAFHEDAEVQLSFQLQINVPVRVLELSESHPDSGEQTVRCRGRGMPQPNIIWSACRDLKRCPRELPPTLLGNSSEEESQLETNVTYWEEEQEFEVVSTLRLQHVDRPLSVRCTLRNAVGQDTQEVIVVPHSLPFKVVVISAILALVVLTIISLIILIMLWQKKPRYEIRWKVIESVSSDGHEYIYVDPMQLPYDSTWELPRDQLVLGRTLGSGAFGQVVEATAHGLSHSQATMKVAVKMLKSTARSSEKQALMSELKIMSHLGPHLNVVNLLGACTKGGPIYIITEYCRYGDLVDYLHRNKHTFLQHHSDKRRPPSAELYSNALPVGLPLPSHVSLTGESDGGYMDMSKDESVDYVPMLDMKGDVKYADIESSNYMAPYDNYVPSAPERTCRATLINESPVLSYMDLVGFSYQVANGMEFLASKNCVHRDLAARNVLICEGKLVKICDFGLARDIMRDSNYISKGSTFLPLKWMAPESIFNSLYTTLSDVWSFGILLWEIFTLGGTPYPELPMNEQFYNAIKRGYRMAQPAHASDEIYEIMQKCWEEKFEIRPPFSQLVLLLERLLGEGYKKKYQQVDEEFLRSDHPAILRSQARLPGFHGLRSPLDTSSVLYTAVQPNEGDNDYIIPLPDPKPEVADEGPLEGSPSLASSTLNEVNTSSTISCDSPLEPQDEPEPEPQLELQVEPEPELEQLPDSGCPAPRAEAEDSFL
Structure (SMILES),IC50 (PDGFRβ kinase) [µM],IC50 (VEGFR2 kinase) [µM],IC50 [1] [µM]
"Cn1cc(-c2cc(Oc3cccc(NC(=O)Nc4ccc(C(F)(F)F)cc4Cl)c3)ncn2)cn1 [Example 96, 1-(2-Chloro-4-(trifluoromethyl)phenyl)-3-(3-(6-(1-methyl-1H-pyrazol-4-yl)pyrimidin-4-yloxy)phenyl)urea]",≤ 10,≤ 10,≤ 10
"Cn1cc(-c2cc(Oc3ccc(F)c(NC(=O)Nc4ccc(C(F)(F)F)cc4Cl)c3)ncn2)cn1 [Example 97, 1-(2-Chloro-4-(trifluoromethyl)phenyl)-3-(2-fluoro-5-(6-(1-methyl-1H-pyrazol-4-yl)pyrimidin-4-yloxy)phenyl)urea]",≤ 10,≤ 10,≤ 10
"Cn1cc(-c2nccc(Oc3cccc(NC(=O)Nc4cccc(C(F)(F)F)c4)c3)n2)cn1 [Example 98, 1-(3-(2-(1-Methyl-1H-pyrazol-4-yl)pyrimidin-4-yloxy)phenyl)-3-(3-(trifluoromethyl)phenyl)urea]",≤ 10,≤ 10,≤ 10
"Cn1cc(-c2nccc(Oc3ccc(NC(=O)Nc4cccc(C(F)(F)F)c4)cc3)n2)cn1 [Example 99, 1-(4-(2-(1-Methyl-1H-pyrazol-4-yl)pyrimidin-4-yloxy)phenyl)-3-(3-(trifluoromethyl)phenyl)urea]",≤ 10,≤ 10,≤ 10
"Cn1cc(-c2cc(Oc3ccc(F)c(NC(=O)Nc4ccc(C(F)(F)F)cc4)c3)ncn2)cn1 [Example 100, 1-(2-Fluoro-5-(6-(1-methyl-1H-pyrazol-4-yl)pyrimidin-4-yloxy)phenyl)-3-(4-(trifluoromethyl)phenyl)urea]",≤ 10,≤ 10,≤ 10
"Cn1cc(-c2cc(Oc3ccc(NC(=O)Nc4ccc(C(F)(F)F)cc4)cc3)ncn2)cn1 [Example 101, 1-(4-(6-(1-Methyl-1H-pyrazol-4-yl)pyrimidin-4-yloxy)phenyl)-3-(4-(trifluoromethyl)phenyl)urea]",≤ 10,≤ 10,> 10
"Cn1cc(-c2nccc(Oc3ccc(NC(=O)Nc4ccc(C(F)(F)F)cc4)cc3)n2)cn1 [Example 102, 1-(4-(2-(1-Methyl-1H-pyrazol-4-yl)pyrimidin-4-yloxy)phenyl)-3-(4-(trifluoromethyl)phenyl)urea]",≤ 10,≤ 10,≤ 10
"Cc1cc(NC(=O)Nc2cc(Oc3cc(-c4cnn(C)c4)ncn3)ccc2F)no1 [Example 104, 1-(2-Fluoro-5-(6-(1-methyl-1H-pyrazol-4-yl)pyrimidin-4-yloxy)phenyl)-3-(5-methylisoxazol-3-yl)urea]",≤ 10,≤ 10,≤ 10
"Cc1cc(NC(=O)Nc2ccc(Oc3ccnc(-c4cnn(C)c4)n3)cc2)no1 [Example 105, 1-(4-(2-(1-Methyl-1H-pyrazol-4-yl)pyrimidin-4-yloxy)phenyl)-3-(5-methylisoxazol-3-yl)urea]",≤ 10,≤ 10,> 10
"O=C(Nc1cccc(Oc2cc(-c3ccnc4ccnn34)ncn2)c1)Nc1ccc(Cl)c(C(F)(F)F)c1 [Example 106, 1-(4-Chloro-3-(trifluoromethyl)phenyl)-3-(3-(6-(pyrazolo[1,5-a]pyrimidin-7-yl)pyrimidin-4-yloxy)phenyl)urea]",≤ 10,≤ 10,≤ 10
"O=C(Nc1cccc(Oc2cc(-c3ccnc4ncnn34)ncn2)c1)Nc1ccc(Cl)c(C(F)(F)F)c1 [Example 107, 1-(3-(6-([1,2,4]Triazolo[1,5-a]pyrimidin-7-yl)pyrimidin-4-yloxy)phenyl)-3-(4-chloro-3-(trifluoromethyl)phenyl)urea]",≤ 10,≤ 10,≤ 10
"CN(C(=O)Nc1ccc(Oc2ccnc(-c3nnco3)c2)cc1)c1ccc(Cl)c(C(F)(F)F)c1 [Example 108, 3-(4-(2-(1,3,4-Oxadiazol-2-yl)pyridin-4-yloxy)phenyl)-1-(4-chloro-3-(trifluoromethyl)phenyl)-1-methylurea]",> 10,> 10,> 10
